Substitutions are numbered along the chain they refer to.

From paper PMC5161641 (Nature, 2016) come the findings set out here.

The target in assay [1] is T1, human P2X3 receptor (hP2X3-MFC) (Homo sapiens, UniProt P56373).
T1 sequence (P56373 6-364): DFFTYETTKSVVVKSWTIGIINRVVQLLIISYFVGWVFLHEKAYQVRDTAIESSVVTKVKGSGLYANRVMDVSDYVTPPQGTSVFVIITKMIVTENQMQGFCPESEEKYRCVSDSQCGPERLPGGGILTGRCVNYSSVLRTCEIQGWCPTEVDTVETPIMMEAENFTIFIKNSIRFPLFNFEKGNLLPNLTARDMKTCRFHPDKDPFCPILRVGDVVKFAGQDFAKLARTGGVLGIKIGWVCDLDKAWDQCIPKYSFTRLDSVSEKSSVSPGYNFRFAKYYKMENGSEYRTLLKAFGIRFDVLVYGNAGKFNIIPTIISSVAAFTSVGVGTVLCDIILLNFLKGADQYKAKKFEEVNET
Nature of the assay: X-ray structure of soaked crystal. Type of assay: binding.

In assay [2] the target is T2, human P2X3 receptor (hP2X3-MFCslow) (Homo sapiens, UniProt P56373, T13P/S15V/V16I).
T2 sequence (P56373 6-364 T13P/S15V/V16I): T1 sequence (P56373 6-364) with T8P, S10V, V11I
Description: SPA 3H-ATP saturation binding.

Assay [3] deals with T1, human P2X3 receptor (hP2X3-MFC). Description: SPA 3H-ATP saturation binding.

By Ki is commonly meant a dissociation constant, usually derived from enzyme kinetics or from competition with a known ligand. A low value points to higher affinity. Compound `CSc1nc(N)c2ncn([C@@H]3O[C@H](COP(=O)(O)OP(=O)(O)OP(=O)(O)O)[C@@H](O)[C@H]3O)c2n1` [2-methylthio-ATP, 2-(methylthio)adenosine 5′-triphosphate] came in with an inhibition constant (Ki) in assay [1] of 1.9 ± 0.1 nM. A word on the Kd: it is the free concentration of one partner at which half of the binding sites on the other are occupied at equilibrium, for simple one-to-one binding. A high value points to lower affinity. Take `Nc1ncnc2c1ncn2[C@@H]1O[C@H](COP(=O)(O)OP(=O)(O)OP(=O)(O)O)[C@@H](O)[C@H]1O` [ATP]: the Kd was found to be 3.3 ± 0.3 nM in assay [2] and 2.8 ± 0.1 nM in assay [3].
